ChEMBL document CHEMBL5120839, “Design, synthesis and antibacterial activity of novel pleuromutilin derivatives with thieno[2,3-d]pyrimidine substitution” (Eur J Med Chem, 2022)
≈ marks a conversion by molar mass, not a printed value.

Legend:
Format in all cases: functional
[1] = system: Staphylococcus aureus; assay: Antibacterial activity against Staphylococcus aureus assessed as diameter of the inhibition circle at 1 mg/ml incubated for 48 hrs
[2] = system: Staphylococcus aureus; assay: Antibacterial activity against Staphylococcus aureus assessed as inhibition of bacterial growth incubated for 24 hrs by microbroth two-fold dilution method
[3] = system: Escherichia coli; assay: Antibacterial activity against Escherichia coli assessed as inhibition of bacterial growth incubated for 24 hrs by microbroth two-fold dilution method
[4] = system: Streptococcus agalactiae; assay: Antibacterial activity against Streptococcus agalactiae assessed as inhibition of bacterial growth incubated for 24 hrs by microbroth two-fold dilution method
[5] = system: Escherichia coli; assay: Antibacterial activity against Escherichia coli assessed as bacterial growth by measuring optical density at 0.5 times MIC incubated for 12 hrs by real time growth curve analysis
[6] = system: Streptococcus agalactiae; assay: Antibacterial activity against Streptococcus agalactiae assessed as bacterial growth by measuring optical density at 1 to 2 times MIC incubated for 12 hrs by real time growth curve analysis
[7] = system: Staphylococcus aureus; assay: Antibacterial activity against Methicillin-resistant Staphylococcus aureus BNCC 337371 assessed as inhibition of bacterial growth incubated for 24 hrs by microbroth two-fold dilution method
[8] = system: Escherichia coli; assay: Antibacterial activity against Escherichia coli assessed as bacterial growth by measuring optical density at 1 to 2 times MIC incubated for 12 hrs by real time growth curve analysis
[9] = system: Streptococcus agalactiae; assay: Antibacterial activity against Streptococcus agalactiae assessed as bacterial growth by measuring optical density at 0.5 times MIC incubated for 12 hrs by real time growth curve analysis

With `C=C[C@]1(C)C[C@@H](OC(=O)CSc2nc(N/N=C/c3ccc(F)cc3)c3ccsc3n2)[C@]2(C)[C@H](C)CC[C@]3(CCC(=O)[C@H]32)[C@@H](C)[C@@H]1O` as the compound, how does the inhibition zone diameter [1] read?
Its inhibition zone diameter is 20.2 mm.

What about the MIC [2] of the same compound?
Its MIC is 7.81 µg/mL (≈ 11.7 µM).

What about the MIC [3] of the same compound?
The MIC was 15.6 µg/mL (≈ 23.5 µM).

And the MIC [4]?
The MIC was 0.244 µg/mL (≈ 0.367 µM).

Which results are given for `C=C[C@]1(C)C[C@@H](OC(=O)CSc2nc(NCCO)cc(C(F)(F)F)n2)[C@]2(C)[C@H](C)CC[C@]3(CCC(=O)[C@H]32)[C@@H](C)[C@@H]1O`?
inhibition zone diameter [1]: 29 mm; MIC [2]: 0.488 µg/mL (≈ 0.814 µM); MIC [3]: 0.488 µg/mL (≈ 0.814 µM); MIC [4]: 0.488 µg/mL (≈ 0.814 µM)

How did the inhibition zone diameter [1] turn out when `C=C[C@]1(C)C[C@@H](OC(=O)CSc2nc(N3CCC(N(C)C)CC3)c3ccsc3n2)[C@]2(C)[C@H](C)CC[C@]3(CCC(=O)[C@H]32)[C@@H](C)[C@@H]1O` was run?
The inhibition zone diameter was 27.2 mm.

And the MIC [2]?
The MIC was 0.244 µg/mL (≈ 0.373 µM).

What about the MIC [3] of the same compound?
Its MIC is 3.91 µg/mL (≈ 5.96 µM).

What about the MIC [4] of the same compound?
The MIC was 0.122 µg/mL (≈ 0.186 µM).

How did the inhibition zone diameter [1] turn out when `C=C[C@]1(C)C[C@@H](OC(=O)CSc2nc(N3CCN(CC)CC3)c3c(C)csc3n2)[C@]2(C)[C@H](C)CC[C@]3(CCC(=O)[C@H]32)[C@@H](C)[C@@H]1O` was run?
The inhibition zone diameter was 31.2 mm.

What about the MIC [2] of the same compound?
The MIC was 0.244 µg/mL (≈ 0.373 µM).

What about the MIC [3] of the same compound?
The MIC was 0.977 µg/mL (≈ 1.49 µM).

What about the MIC [4] of the same compound?
The MIC was 0.0076 µg/mL (≈ 0.0116 µM).

With `C=C[C@]1(C)C[C@@H](OC(=O)CSc2nc(N3CCCC3)c3ccsc3n2)[C@]2(C)[C@H](C)CC[C@]3(CCC(=O)[C@H]32)[C@@H](C)[C@@H]1O` as the compound, how does the inhibition zone diameter [1] read?
Its inhibition zone diameter is 17.8 mm.

What about the MIC [2] of the same compound?
Its MIC is 3.91 µg/mL (≈ 6.53 µM).

And the MIC [3]?
Its MIC is > 15.6 µg/mL.

And the MIC [4]?
Its MIC is 0.061 µg/mL (≈ 0.102 µM).

What does the source list for `C=C[C@]1(C)C[C@@H](OC(=O)CSc2nc(N3CCN(C)CC3)c3ccsc3n2)[C@]2(C)[C@H](C)CC[C@]3(CCC(=O)[C@H]32)[C@@H](C)[C@@H]1O`?
inhibition zone diameter [1]: 26.1 mm; MIC [2]: 0.122 µg/mL (≈ 0.195 µM); MIC [3]: 7.81 µg/mL (≈ 12.5 µM); MIC [4]: 0.244 µg/mL (≈ 0.389 µM)

With `C=C[C@]1(C)C[C@@H](OC(=O)CSc2nc(N3CCOCC3)c3ccsc3n2)[C@]2(C)[C@H](C)CC[C@]3(CCC(=O)[C@H]32)[C@@H](C)[C@@H]1O` as the compound, how does the inhibition zone diameter [1] read?
Its inhibition zone diameter is 21.6 mm.

What about the MIC [2] of the same compound?
The MIC was 0.122 µg/mL (≈ 0.199 µM).

And the MIC [3]?
The MIC was 1.95 µg/mL (≈ 3.18 µM).

What about the MIC [4] of the same compound?
The MIC was 0.061 µg/mL (≈ 0.0994 µM).

Which results are given for `C=C[C@]1(C)C[C@@H](OC(=O)CSc2nc(N/N=C/c3ccc(OC)cc3)c3ccsc3n2)[C@]2(C)[C@H](C)CC[C@]3(CCC(=O)[C@H]32)[C@@H](C)[C@@H]1O`?
inhibition zone diameter [1]: 18.8 mm; MIC [2]: 7.81 µg/mL (≈ 11.5 µM); MIC [3]: > 15.6 µg/mL; MIC [4]: 0.0305 µg/mL (≈ 0.0451 µM)

How did the inhibition zone diameter [1] turn out when `C=C[C@]1(C)C[C@@H](OC(=O)CSc2nc(N/N=C/c3ccccc3[N+](=O)[O-])c3ccsc3n2)[C@]2(C)[C@H](C)CC[C@]3(CCC(=O)[C@H]32)[C@@H](C)[C@@H]1O` was run?
Its inhibition zone diameter is 21.5 mm.

What about the MIC [2] of the same compound?
Its MIC is 7.81 µg/mL (≈ 11.3 µM).

What about the MIC [3] of the same compound?
Its MIC is 7.81 µg/mL (≈ 11.3 µM).

And the MIC [4]?
The MIC was 0.0153 µg/mL (≈ 0.0221 µM).

With `C=C[C@]1(C)C[C@@H](OC(=O)CSc2ncc(C)c(N3CCN(CC)CC3)n2)[C@]2(C)[C@H](C)CC[C@]3(CCC(=O)[C@H]32)[C@@H](C)[C@@H]1O` as the compound, how does the inhibition zone diameter [1] read?
The inhibition zone diameter was 26.6 mm.

And the MIC [2]?
The MIC was 0.244 µg/mL (≈ 0.408 µM).

And the MIC [3]?
The MIC was 3.91 µg/mL (≈ 6.52 µM).

And the MIC [4]?
Its MIC is 0.244 µg/mL (≈ 0.408 µM).

What does the source list for `C=C[C@]1(C)C[C@@H](OC(=O)CSc2nc(N(C)CCN(C)C)c3ccsc3n2)[C@]2(C)[C@H](C)CC[C@]3(CCC(=O)[C@H]32)[C@@H](C)[C@@H]1O`?
inhibition zone diameter [1]: 29.4 mm; OD [5]: <0.3; OD [6]: 0.1; MIC [7]: 0.244 µg/mL (≈ 0.388 µM); MIC [2]: 0.0019 µg/mL (≈ 0.00302 µM); OD [8]: 0.1; MIC [3]: 0.244 µg/mL (≈ 0.388 µM); MIC [4]: 0.244 µg/mL (≈ 0.388 µM); OD [9]: <0.3

Which inhibition zone diameter [1] does the source give for `C=C[C@]1(C)C[C@@H](OC(=O)CSc2nc(N3CCN(CC)CC3)cc(C(F)(F)F)n2)[C@]2(C)[C@H](C)CC[C@]3(CCC(=O)[C@H]32)[C@@H](C)[C@@H]1O` here?
The inhibition zone diameter was 21 mm.

What about the MIC [2] of the same compound?
The MIC was 0.488 µg/mL (≈ 0.748 µM).

And the MIC [3]?
The MIC was 1.95 µg/mL (≈ 2.99 µM).

And the MIC [4]?
Its MIC is 0.244 µg/mL (≈ 0.374 µM).

How did the inhibition zone diameter [1] turn out when `C=C[C@]1(C)C[C@@H](OC(=O)CSc2nc(N3CCCNCC3)c3ccsc3n2)[C@]2(C)[C@H](C)CC[C@]3(CCC(=O)[C@H]32)[C@@H](C)[C@@H]1O` was run?
Its inhibition zone diameter is 26.2 mm.

And the MIC [2]?
Its MIC is 0.122 µg/mL (≈ 0.195 µM).

What about the MIC [3] of the same compound?
Its MIC is 0.976 µg/mL (≈ 1.56 µM).

And the MIC [4]?
Its MIC is 0.061 µg/mL (≈ 0.0973 µM).

For `C=C[C@]1(C)C[C@@H](OC(=O)CSc2nc(N/N=C/c3ccc(O)c(Br)c3)c3ccsc3n2)[C@]2(C)[C@H](C)CC[C@]3(CCC(=O)[C@H]32)[C@@H](C)[C@@H]1O`, which inhibition zone diameter [1] is on record?
The inhibition zone diameter was 21 mm.

And the MIC [2]?
The MIC was 3.91 µg/mL (≈ 5.27 µM).

What about the MIC [3] of the same compound?
The MIC was > 15.6 µg/mL.

And the MIC [4]?
Its MIC is 1.95 µg/mL (≈ 2.63 µM).

For `C=C[C@]1(C)C[C@@H](OC(=O)CSc2nc(N/N=C/c3cccs3)c3ccsc3n2)[C@]2(C)[C@H](C)CC[C@]3(CCC(=O)[C@H]32)[C@@H](C)[C@@H]1O`, which inhibition zone diameter [1] is on record?
The inhibition zone diameter was 22.8 mm.

What about the MIC [2] of the same compound?
Its MIC is 0.977 µg/mL (≈ 1.5 µM).

And the MIC [3]?
The MIC was 7.81 µg/mL (≈ 12 µM).

And the MIC [4]?
Its MIC is 0.488 µg/mL (≈ 0.748 µM).

With `C=C[C@]1(C)C[C@@H](OC(=O)CSc2nccc(NCCO)n2)[C@]2(C)[C@H](C)CC[C@]3(CCC(=O)[C@H]32)[C@@H](C)[C@@H]1O` as the compound, how does the Activity [1] read?
Its Activity is 27.3 mM.

What about the MIC [2] of the same compound?
Its MIC is 0.122 µg/mL (≈ 0.23 µM).

What about the MIC [3] of the same compound?
The MIC was 3.91 µg/mL (≈ 7.35 µM).

And the MIC [4]?
Its MIC is 0.488 µg/mL (≈ 0.918 µM).
